In ChEMBL document CHEMBL5154644, “Design, Synthesis, and Structure-Activity Relationship Optimization of Pyrazolopyrimidine Amide Inhibitors of Phosphoinositide 3-Kinase γ (PI3Kγ)” (J Med Chem, 2022):

Key:
[1] = molecular target: T1, Phosphatidylinositol 4,5-bisphosphate 3-kinase catalytic subunit gamma isoform (Homo sapiens, UniProt P48736); test: Inhibition of PI3Kgamma (unknown origin) in […] stimulated human THP-1 cells assessed as reduction in Akt phosphorylation level at Ser473 residue preincubated for 60 mins followed by rhMCP-1 stimulation and measured after 2 mins by AlphaLisa assay; assay type: cell-based
T1 sequence (P48736 whole entry, canonical isoform): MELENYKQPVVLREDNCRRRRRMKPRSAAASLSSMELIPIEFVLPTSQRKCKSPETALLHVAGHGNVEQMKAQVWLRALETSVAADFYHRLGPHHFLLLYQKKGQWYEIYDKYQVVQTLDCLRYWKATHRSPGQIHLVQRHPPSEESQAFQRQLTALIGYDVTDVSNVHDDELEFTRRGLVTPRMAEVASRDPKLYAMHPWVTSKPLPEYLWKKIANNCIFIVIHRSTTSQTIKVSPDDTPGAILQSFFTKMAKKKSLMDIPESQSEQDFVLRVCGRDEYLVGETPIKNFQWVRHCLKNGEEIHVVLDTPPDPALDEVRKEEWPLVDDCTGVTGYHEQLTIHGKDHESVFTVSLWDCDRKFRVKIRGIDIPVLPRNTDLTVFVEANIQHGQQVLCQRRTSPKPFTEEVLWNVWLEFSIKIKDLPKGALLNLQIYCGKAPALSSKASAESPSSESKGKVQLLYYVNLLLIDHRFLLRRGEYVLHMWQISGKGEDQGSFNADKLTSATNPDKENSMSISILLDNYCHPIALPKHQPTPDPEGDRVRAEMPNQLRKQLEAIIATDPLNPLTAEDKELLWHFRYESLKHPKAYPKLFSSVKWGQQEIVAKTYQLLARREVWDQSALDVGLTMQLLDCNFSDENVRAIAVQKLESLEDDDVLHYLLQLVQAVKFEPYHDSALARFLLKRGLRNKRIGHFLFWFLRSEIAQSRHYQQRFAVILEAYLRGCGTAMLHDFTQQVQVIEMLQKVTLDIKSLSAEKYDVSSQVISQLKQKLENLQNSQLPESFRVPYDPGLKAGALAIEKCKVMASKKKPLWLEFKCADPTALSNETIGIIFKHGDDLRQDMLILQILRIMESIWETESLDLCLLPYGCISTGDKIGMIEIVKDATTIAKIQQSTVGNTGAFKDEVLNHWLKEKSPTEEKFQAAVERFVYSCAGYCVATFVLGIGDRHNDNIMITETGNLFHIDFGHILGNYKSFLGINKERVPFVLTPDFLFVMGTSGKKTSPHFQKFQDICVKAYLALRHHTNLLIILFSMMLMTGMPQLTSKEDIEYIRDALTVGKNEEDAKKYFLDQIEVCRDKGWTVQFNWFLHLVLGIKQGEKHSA

[2] = Metabolic stability in human hepatocytes assessed as intrinsic clearance per 10^6 cells at 0.5 uM by LC-MS/MS analysis; assay type: ADME, cell-based, Hepatocyte; conditions: read-out: CLH
[3] = molecular target: CYP3A4 (Homo sapiens, UniProt P08684); test: in vitro; conditions: human liver microsomes, probe midazolam
Chain of CYP3A4 (P08684 whole entry): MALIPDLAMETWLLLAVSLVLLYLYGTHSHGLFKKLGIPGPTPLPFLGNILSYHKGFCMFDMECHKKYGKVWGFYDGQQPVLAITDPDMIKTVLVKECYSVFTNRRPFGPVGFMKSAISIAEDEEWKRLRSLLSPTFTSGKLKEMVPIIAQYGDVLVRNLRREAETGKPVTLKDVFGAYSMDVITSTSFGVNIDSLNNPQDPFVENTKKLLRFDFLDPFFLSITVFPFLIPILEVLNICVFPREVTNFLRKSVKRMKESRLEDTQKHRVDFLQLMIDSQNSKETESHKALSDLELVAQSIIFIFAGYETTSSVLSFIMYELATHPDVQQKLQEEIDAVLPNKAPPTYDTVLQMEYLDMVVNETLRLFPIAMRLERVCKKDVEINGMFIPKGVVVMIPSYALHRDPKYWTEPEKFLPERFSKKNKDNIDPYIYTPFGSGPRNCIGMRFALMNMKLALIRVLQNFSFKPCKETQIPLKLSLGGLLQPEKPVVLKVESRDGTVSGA
Description: Time dependent inhibition of CYP3A4 in human liver microsomes at 10 uM using midazolam as substrate preincubated for 30 mins in presence of NADPH by LC/MS/MS analysis relative to control

[4] = Metabolic stability in rat hepatocyte assessed as intrinsic clearance per 10^8 cells at 0.5 uM by LC-MS/MS analysis; assay type: ADME, cell-based; conditions: hepatocytes
[5] = molecular target: T2, Phosphatidylinositol 4,5-bisphosphate 3-kinase catalytic subunit delta isoform (Homo sapiens, UniProt O00329); test: Inhibition of PI3Kdelta (unknown origin) using PIP2 as substrate preincubated for 1 hr followed by substrate addition and measured after 60 mins in presence of ATP by ADP-glo assay
T2 sequence (O00329 whole entry): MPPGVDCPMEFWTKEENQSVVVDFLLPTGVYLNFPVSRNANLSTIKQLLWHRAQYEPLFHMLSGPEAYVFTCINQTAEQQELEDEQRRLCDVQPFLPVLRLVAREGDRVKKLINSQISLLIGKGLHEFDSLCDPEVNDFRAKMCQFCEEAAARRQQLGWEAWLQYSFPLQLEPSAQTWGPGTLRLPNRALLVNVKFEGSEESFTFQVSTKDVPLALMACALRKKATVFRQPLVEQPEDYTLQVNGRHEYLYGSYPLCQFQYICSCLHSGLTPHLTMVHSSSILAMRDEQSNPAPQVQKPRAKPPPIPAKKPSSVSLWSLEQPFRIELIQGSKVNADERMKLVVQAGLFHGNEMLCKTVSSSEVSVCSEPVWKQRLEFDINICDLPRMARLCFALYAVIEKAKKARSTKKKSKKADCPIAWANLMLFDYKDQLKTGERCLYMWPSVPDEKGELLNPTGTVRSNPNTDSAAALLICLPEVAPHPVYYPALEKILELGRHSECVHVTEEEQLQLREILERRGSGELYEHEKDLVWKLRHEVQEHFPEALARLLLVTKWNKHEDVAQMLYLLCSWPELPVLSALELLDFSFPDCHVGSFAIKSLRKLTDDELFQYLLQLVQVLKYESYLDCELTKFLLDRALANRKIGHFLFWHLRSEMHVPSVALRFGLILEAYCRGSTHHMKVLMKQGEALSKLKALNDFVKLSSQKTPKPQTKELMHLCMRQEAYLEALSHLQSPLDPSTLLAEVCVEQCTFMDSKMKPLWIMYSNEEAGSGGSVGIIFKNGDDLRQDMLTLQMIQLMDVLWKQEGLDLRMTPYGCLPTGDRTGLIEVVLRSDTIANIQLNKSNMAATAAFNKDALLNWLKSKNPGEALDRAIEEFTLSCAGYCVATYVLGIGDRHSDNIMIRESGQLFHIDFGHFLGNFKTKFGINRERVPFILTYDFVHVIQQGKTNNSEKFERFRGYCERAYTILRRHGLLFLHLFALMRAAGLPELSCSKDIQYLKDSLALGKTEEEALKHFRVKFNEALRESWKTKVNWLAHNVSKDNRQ

[6] = organism: Homo sapiens; test: Selectivity ratio of IC50 for inhibition of PI3Kdelta (unknown origin) to IC50 for inhibition of PI3Kgamma (unknown origin)
[7] = molecular target: T1, Phosphatidylinositol 4,5-bisphosphate 3-kinase catalytic subunit gamma isoform; test: Inhibition of PI3Kgamma (unknown origin) using PIP2 as substrate preincubated for 1 hr followed by substrate addition and measured after 60 mins in presence of ATP by ADP-glo assay
[8] = molecular target: Phosphatidylinositol 4,5-bisphosphate 3-kinase catalytic subunit alpha isoform (Homo sapiens, UniProt P42336); test: Inhibition of PI3Kalpha (unknown origin) using PIP2 as substrate preincubated for 1 hr followed by substrate addition and measured after 60 mins in presence of ATP by ADP-glo assay
Chain of Phosphatidylinositol 4,5-bisphosphate 3-kinase catalytic subunit alpha isoform (P42336 whole entry, canonical isoform): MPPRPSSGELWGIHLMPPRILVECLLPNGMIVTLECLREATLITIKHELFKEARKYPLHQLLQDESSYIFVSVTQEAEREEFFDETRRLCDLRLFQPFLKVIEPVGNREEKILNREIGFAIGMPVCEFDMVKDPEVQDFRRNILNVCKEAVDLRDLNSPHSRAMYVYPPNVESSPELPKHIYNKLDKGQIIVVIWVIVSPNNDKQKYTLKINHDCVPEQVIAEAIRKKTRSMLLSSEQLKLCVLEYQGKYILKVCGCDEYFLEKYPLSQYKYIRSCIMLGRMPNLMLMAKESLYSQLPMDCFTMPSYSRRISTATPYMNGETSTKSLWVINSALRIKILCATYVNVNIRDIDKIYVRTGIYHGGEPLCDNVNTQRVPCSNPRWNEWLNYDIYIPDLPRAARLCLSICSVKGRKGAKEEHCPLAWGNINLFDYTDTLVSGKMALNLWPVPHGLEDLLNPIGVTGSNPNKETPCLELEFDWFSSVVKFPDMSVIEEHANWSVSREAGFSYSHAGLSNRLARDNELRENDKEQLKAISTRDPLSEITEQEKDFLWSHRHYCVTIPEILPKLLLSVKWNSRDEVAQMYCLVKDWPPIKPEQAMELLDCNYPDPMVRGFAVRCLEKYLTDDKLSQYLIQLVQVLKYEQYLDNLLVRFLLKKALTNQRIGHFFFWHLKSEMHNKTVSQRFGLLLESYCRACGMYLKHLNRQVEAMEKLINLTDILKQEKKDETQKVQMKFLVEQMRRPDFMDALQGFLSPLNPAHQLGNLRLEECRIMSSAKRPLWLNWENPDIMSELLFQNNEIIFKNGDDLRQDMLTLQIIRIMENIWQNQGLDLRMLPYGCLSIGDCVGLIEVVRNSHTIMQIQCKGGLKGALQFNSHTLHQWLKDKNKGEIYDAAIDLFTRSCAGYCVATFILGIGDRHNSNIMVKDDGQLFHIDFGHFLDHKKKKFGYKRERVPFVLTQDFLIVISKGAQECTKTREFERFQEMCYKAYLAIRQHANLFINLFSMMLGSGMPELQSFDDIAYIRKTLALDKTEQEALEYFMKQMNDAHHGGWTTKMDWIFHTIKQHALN

[9] = organism: Homo sapiens; test: Selectivity ratio of IC50 for inhibition of PI3Kalpha (unknown origin) to IC50 for inhibition of PI3Kgamma (unknown origin)

SMILES: Cc1cc(-c2ccn3ncc(-c4cnn(C)c4)c3n2)cc2c1C(=O)N([C@@H](C)C1CC1)C2
- IC50 [1]: 0.468 µM
- hepatocyte CLint at 0.5 µM [2]: 27.2 µL/min/1e6 cells
- inhibition at 30 min, 10 µM [3]: 67%
- hepatocyte intrinsic clearance [4]: 10.3 µL/min

SMILES: C[C@@H](C1CC1)N1Cc2cc(-c3ccn4nc(N)c(C(=O)NC5CC5)c4n3)cc(S(=O)(=O)C3CCC3)c2C1=O
- IC50 [5]: 0.376 µM
- IC50 [1]: 0.05 µM
- hepatocyte CLint at 0.5 µM [2]: 4.89 µL/min/1e6 cells
- inhibition at 30 min, 10 µM [3]: 35%
- hepatocyte intrinsic clearance [4]: 4.14 µL/min
- Ratio IC50 [6]: 124
- IC50 [7]: 0.003 µM
- IC50 [8]: 0.512 µM

SMILES: CS(=O)(=O)Nc1cc(-c2ccn3nc(N)c(C(=O)NC4CC4)c3n2)cc2c1C(=O)N([C@@H](C1CC1)C(F)(F)F)C2
- IC50 [5]: 4.58 µM
- IC50 [1]: 0.088 µM
- hepatocyte CLint at 0.5 µM [2]: < 1.2 µL/min/1e6 cells
- inhibition at 30 min, 10 µM [3]: 22%
- hepatocyte intrinsic clearance [4]: < 1.2 µL/min
- Ratio IC50 [6]: 2780
- IC50 [7]: 0.0017 µM
- IC50 [8]: 5.36 µM

SMILES: Cc1cc(-c2ccn3nc(N)c(C(=O)N[C@H]4CC[C@H](N)CC4)c3n2)cc2c1C(=O)N([C@@H](C)C1CC1)C2
- IC50 [5]: 4.53 µM
- Ratio IC50 [9]: > 4960
- IC50 [1]: 0.276 µM
- hepatocyte CLint at 0.5 µM [2]: 4.74 µL/min/1e6 cells
- hepatocyte intrinsic clearance [4]: 19.3 µL/min
- Ratio IC50 [6]: 2250
- IC50 [7]: 0.002 µM
- IC50 [8]: > 10 µM

SMILES: C[C@H](N1Cc2cc(-c3ccn4nc(N)c(C(=O)NC5CC5)c4n3)cc(NS(C)(=O)=O)c2C1=O)C(F)(F)F
- IC50 [5]: 0.068 µM
- IC50 [1]: 0.016 µM
- hepatocyte CLint at 0.5 µM [2]: < 1.2 µL/min/1e6 cells
- inhibition at 30 min, 10 µM [3]: 14%
- hepatocyte intrinsic clearance [4]: < 1.2 µL/min
- Ratio IC50 [6]: 89
- IC50 [7]: 0.0008 µM
- IC50 [8]: 0.097 µM

SMILES: CCN1Cc2cc(-c3ccn4nc(N)c(C(=O)NC5CC5)c4n3)cc(C)c2C1=O
- IC50 [5]: 0.179 µM
- Ratio IC50 [9]: 21
- IC50 [1]: 0.338 µM
- Ratio IC50 [6]: 32
- IC50 [7]: 0.0056 µM
- IC50 [8]: 0.118 µM

SMILES: CNS(=O)(=O)c1cc(-c2ccn3nc(N)c(C(=O)N[C@@H](CO)C4CC4)c3n2)cc2c1C(=O)N([C@@H](C)C(F)(F)F)C2
- IC50 [5]: 0.086 µM
- Ratio IC50 [9]: 274
- IC50 [1]: 0.096 µM
- hepatocyte CLint at 0.5 µM [2]: 1.61 µL/min/1e6 cells
- hepatocyte intrinsic clearance [4]: 3.82 µL/min
- Ratio IC50 [6]: 65
- IC50 [7]: 0.0013 µM
- IC50 [8]: 0.363 µM

SMILES: CNS(=O)(=O)c1cc(-c2ccn3nc(N)c(C(=O)N[C@H]4CC[C@](C)(O)CC4)c3n2)cc2c1C(=O)N([C@@H](C)C(F)(F)F)C2
- IC50 [5]: 0.02 µM
- Ratio IC50 [9]: 53
- IC50 [1]: 0.032 µM
- hepatocyte CLint at 0.5 µM [2]: 2.77 µL/min/1e6 cells
- hepatocyte intrinsic clearance [4]: < 1.2 µL/min
- Ratio IC50 [6]: 22
- IC50 [7]: 0.0009 µM
- IC50 [8]: 0.049 µM

SMILES: Cc1cc(-c2ccn3nc(N)c(C(=O)NC4CC4)c3n2)cc2c1C(=O)N(CC1CC1)C2
- IC50 [5]: 0.911 µM
- Ratio IC50 [9]: 42
- IC50 [1]: 0.258 µM
- Ratio IC50 [6]: 84
- IC50 [7]: 0.0101 µM
- IC50 [8]: 0.431 µM

SMILES: Cc1cc(-c2ccn3nc(N)c(C(=O)N[C@H]4CC[C@H](C(=O)O)CC4)c3n2)cc2c1C(=O)N([C@@H](C)C1CC1)C2
- IC50 [5]: 0.02 µM
- Ratio IC50 [9]: 13
- IC50 [1]: 0.397 µM
- Ratio IC50 [6]: 9
- IC50 [7]: 0.0021 µM
- IC50 [8]: 0.029 µM

SMILES: CC[C@H](N1Cc2cc(-c3ccn4nc(N)c(C(=O)NC5CC5)c4n3)cc(NS(C)(=O)=O)c2C1=O)C(F)(F)F
- IC50 [5]: 1.31 µM
- IC50 [1]: 0.031 µM
- hepatocyte CLint at 0.5 µM [2]: 2.91 µL/min/1e6 cells
- inhibition at 30 min, 10 µM [3]: 62%
- hepatocyte intrinsic clearance [4]: 6.67 µL/min
- Ratio IC50 [6]: 403
- IC50 [7]: 0.0033 µM
- IC50 [8]: 2.83 µM

SMILES: Cc1cc(-c2ccn3nc(N)c(C(=O)NC4CC4)c3n2)cc2c1C(=O)N([C@@H](C1CC1)C(F)(F)F)C2
- IC50 [5]: > 10 µM
- Ratio IC50 [9]: > 566
- IC50 [1]: 0.795 µM
- Ratio IC50 [6]: > 566
- IC50 [7]: 0.0177 µM
- IC50 [8]: > 10 µM
